According to patent US9988400B2 (Genentech, Inc., priority 2013, dated 2018):

What follows are molecules tested against T1, HEK cells stably transfected with tetracycline inducible hNR1 and hNR2A (Homo sapiens, UniProt Q05586+Q12879) (assay: Assay 1: Cell-Based Assay, cytosolic calcium response to positive allosteric modulators (with 30 μM glycine and 300 nM L-glutamate, EC30)). Conditions: Table 2; cytosolic calcium response, with 30 μM glycine and 300 nM L-glutamate (EC30); — = no plateau was reached.
T1 construct: expressed in transfected cells; host or cells: HEK cells, stably transfected, tetracycline/doxycycline inducible
T1 sequence (Q12879 23-1464, other chains not shown): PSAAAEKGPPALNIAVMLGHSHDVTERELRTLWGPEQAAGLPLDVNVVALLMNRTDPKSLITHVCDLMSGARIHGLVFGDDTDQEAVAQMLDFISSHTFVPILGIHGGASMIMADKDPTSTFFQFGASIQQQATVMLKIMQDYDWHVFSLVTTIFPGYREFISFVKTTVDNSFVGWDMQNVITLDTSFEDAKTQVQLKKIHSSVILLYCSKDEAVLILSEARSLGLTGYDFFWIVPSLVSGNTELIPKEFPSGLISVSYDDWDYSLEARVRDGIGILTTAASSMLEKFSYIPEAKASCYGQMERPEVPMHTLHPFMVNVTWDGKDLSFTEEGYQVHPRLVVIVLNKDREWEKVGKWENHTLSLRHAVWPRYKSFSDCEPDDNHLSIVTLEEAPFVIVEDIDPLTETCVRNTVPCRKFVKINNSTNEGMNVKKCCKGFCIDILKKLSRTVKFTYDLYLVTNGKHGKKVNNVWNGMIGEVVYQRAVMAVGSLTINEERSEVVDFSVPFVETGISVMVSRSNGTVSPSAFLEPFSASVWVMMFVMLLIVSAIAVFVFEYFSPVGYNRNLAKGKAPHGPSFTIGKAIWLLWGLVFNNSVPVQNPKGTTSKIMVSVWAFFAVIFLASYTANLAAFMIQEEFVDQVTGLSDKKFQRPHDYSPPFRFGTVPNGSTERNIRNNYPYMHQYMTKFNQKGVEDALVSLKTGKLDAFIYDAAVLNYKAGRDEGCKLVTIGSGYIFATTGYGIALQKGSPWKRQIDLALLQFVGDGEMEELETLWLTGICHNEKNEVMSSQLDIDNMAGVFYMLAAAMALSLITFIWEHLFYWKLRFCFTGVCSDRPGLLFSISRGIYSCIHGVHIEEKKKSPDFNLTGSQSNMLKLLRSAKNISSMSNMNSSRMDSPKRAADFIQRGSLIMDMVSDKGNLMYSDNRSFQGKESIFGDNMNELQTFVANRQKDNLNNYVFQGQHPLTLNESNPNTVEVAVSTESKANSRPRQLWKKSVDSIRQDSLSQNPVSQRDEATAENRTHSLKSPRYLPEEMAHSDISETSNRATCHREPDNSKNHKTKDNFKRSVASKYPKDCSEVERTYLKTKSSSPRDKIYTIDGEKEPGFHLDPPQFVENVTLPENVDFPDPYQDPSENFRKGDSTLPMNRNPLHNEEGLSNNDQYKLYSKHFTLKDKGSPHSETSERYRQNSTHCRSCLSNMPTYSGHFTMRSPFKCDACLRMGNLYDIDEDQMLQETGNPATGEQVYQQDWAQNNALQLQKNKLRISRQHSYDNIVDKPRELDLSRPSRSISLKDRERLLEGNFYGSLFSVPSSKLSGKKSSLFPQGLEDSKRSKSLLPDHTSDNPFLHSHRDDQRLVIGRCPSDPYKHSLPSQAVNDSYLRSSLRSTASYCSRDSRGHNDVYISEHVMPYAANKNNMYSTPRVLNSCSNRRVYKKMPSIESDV
In short: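 Cells induced 24 h with 7.5 μg mL^−1 doxycycline plus 500 μM (+)-ketamine, loaded 60 min at 37 °C with calcium dye in Mg-free HBSS (1.8 mM Ca, probenecid, 10 μM (+)-ketamine, pH 7.15). Peak RFU over 5 min after compound addition, scaled to 100 μM L-glutamate (100%) and 0 μM (0%); four-parameter Hill fit for EC50, max % if no plateau.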

`Cc1sc2nc(Cc3cccc(C(F)(F)F)c3F)cc(=O)n2c1C(C)O` (single isomer, unassigned; enantiomer 1) [Example 27.11, 7-(2-fluoro-3-(trifluoromethyl)benzyl)-3-(1-hydroxyethyl)-2-methyl-5H-thiazolo[3,2-a]pyrimidin-5-one (enantiomer 1)] was tested. Which EC50 did it give?
The EC50 was 25300 nM.

How did the EC50 turn out when `Cc1sc2nc(Cc3cccc(C(F)(F)F)c3F)cc(=O)n2c1C(C)O` (single isomer, unassigned; enantiomer 2) [Example 27.12, 7-(2-fluoro-3-(trifluoromethyl)benzyl)-3-(1-hydroxyethyl)-2-methyl-5H-thiazolo[3,2-a]pyrimidin-5-one (enantiomer 2)] was run?
The EC50 was 40800 nM.

With `Cc1sc2nc(COc3ccc(F)cc3)cc(=O)n2c1C(=O)NCC#N` [Example 1.1, N-(cyanomethyl)-7-((4-fluorophenoxy)methyl)-2-methyl-5-oxo-5H-thiazolo[3,2-a]pyrimidine-3-carboxamide] as the molecule, how does the EC50 read?
The EC50 was 9600 nM.

`CCNC(=O)c1c(C)sc2nc(COc3ccc(F)cc3)cc(=O)n12` [Example 1.4, N-ethyl-7-(4-fluorophenoxymethyl)-2-methyl-5-oxo-5H-[1,3]thiazolo[3,2-a] pyrimidine-3-carboxamide] was tested. Which EC50 did it give?
The EC50 was 11200 nM.

How did the EC50 turn out when `Cc1sc2nc(COc3ccc(F)cc3)cc(=O)n2c1C(=O)NCC(F)(F)F` [Example 1.5, 7-(4-Fluorophenoxymethyl)-2-methyl-5-oxo-N-(2,2,2-trifluoroethyl)-5H-[1,3]thiazolo[3,2-a]pyrimidine-3-carboxamide] was run?
Its EC50 is 23000 nM.

Same assay, conditions: Table 2; responses scaled relative to 100 μM L-glutamate maximal response (100%) and 0 μM L-glutamate (0%)

How did the Max % turn out when `Cc1sc2nc(COc3ccc(F)cc3)cc(=O)n2c1C(=O)NCC#N` [Example 1.1, N-(cyanomethyl)-7-((4-fluorophenoxy)methyl)-2-methyl-5-oxo-5H-thiazolo[3,2-a]pyrimidine-3-carboxamide] was run?
Its Max % is 63%.

Which Max % does the source give for `CNC(=O)c1c(C)sc2nc(COc3ccc(F)cc3)cc(=O)n12` [Example 1.2, 7-(4-Fluorophenoxymethyl)-N,2-dimethyl-5-oxo-5H-[1,3]thiazolo[3,2-a]pyrimidine-3-carboxamide] here?
Its Max % is 92%.

How did the Max % turn out when `Cc1sc2nc(COc3ccc(F)cc3)cc(=O)n2c1C(=O)N1CCC1` [Example 1.3, 3-[(Azetidin-1-yl)carbonyl]-7-(4-fluorophenoxymethyl)-2-methyl-5H-[1,3]thiazolo[3,2-a]pyrimidin-5-one] was run?
The Max % was 45%.

With `CCNC(=O)c1c(C)sc2nc(COc3ccc(F)cc3)cc(=O)n12` [Example 1.4, N-ethyl-7-(4-fluorophenoxymethyl)-2-methyl-5-oxo-5H-[1,3]thiazolo[3,2-a] pyrimidine-3-carboxamide] as the molecule, how does the Max % read?
Its Max % is 59.5%.

How did the Max % turn out when `Cc1sc2nc(COc3ccc(F)cc3)cc(=O)n2c1C(=O)NCC(F)(F)F` [Example 1.5, 7-(4-Fluorophenoxymethyl)-2-methyl-5-oxo-N-(2,2,2-trifluoroethyl)-5H-[1,3]thiazolo[3,2-a]pyrimidine-3-carboxamide] was run?
The Max % was 51.4%.

Same assay, conditions: Table 3; cytosolic calcium response, with 30 μM glycine and 300 nM L-glutamate (EC30); — = no plateau was reached

With `N#CC1CC1c1c(C(F)(F)F)sc2nc(Cn3nc(C(F)(F)F)cc3Cl)cc(=O)n12` (single isomer, unassigned) [compound 207] as the molecule, how does the EC50 read?
Its EC50 is 7.4 nM.

For `N#CC1CC1c1c(C(F)(F)F)sc2nc(Cn3nc(C(F)(F)F)cc3Cl)cc(=O)n12` (single isomer, unassigned) [compound 208], which EC50 is on record?
The EC50 was 370 nM.

With `N#CC1CC1c1c(Cl)sc2nc(Cn3nc(C(F)(F)F)cc3Cl)cc(=O)n12` (single isomer, unassigned) [compound 266] as the molecule, how does the EC50 read?
Its EC50 is 24.9 nM.

For `O=c1cc(Cn2nc(C(F)(F)F)cc2Cl)nc2sc(C(F)(F)F)c([C@@H]3C[C@H]3CO)n12` (single isomer, unassigned) [compound 269], which EC50 is on record?
The EC50 was 83.1 nM.

Which EC50 does the source give for `O=c1cc(Cn2nc(C(F)(F)F)cc2Cl)nc2sc(C(F)(F)F)c(C3CC3CO)n12` (single isomer, unassigned) [compound 270] here?
Its EC50 is 518 nM.

For `Cc1sc2nc(Cn3ccc(C(F)(F)F)n3)cc(=O)n2c1C1CC1C#N` (single isomer, unassigned) [compound 272], which EC50 is on record?
Its EC50 is 252 nM.

How did the EC50 turn out when `Cc1sc2nc(Cn3ccc(C(F)(F)F)n3)cc(=O)n2c1C1CC1C#N` (single isomer, unassigned) [compound 273] was run?
The EC50 was 2080 nM.

Which EC50 does the source give for `Cc1sc2nc(Cn3nc(C(F)(F)F)cc3Br)cc(=O)n2c1[C@@H]1C[C@@H]1C#N` (single isomer, unassigned) [compound 274] here?
Its EC50 is 12 nM.

How did the EC50 turn out when `Cc1sc2nc(Cn3nc(C(F)(F)F)cc3Br)cc(=O)n2c1C1CC1C#N` (single isomer, unassigned) [compound 275] was run?
Its EC50 is 73.7 nM.

How did the EC50 turn out when `N#CC1CC1c1c(C(F)(F)F)sc2nc(Cn3nc(C(F)(F)F)cc3Cl)c(F)c(=O)n12` (single isomer, unassigned) [compound 276] was run?
Its EC50 is 36.4 nM.

How did the EC50 turn out when `N#CC1CC1c1c(C(F)(F)F)sc2nc(Cn3nc(C(F)(F)F)cc3Cl)c(F)c(=O)n12` (single isomer, unassigned) [compound 277] was run?
The EC50 was 155 nM.
